Laboratory results from patent US12590061B2, “Crystalline form of acetylcholinesterase inhibitor and preparation method therefor and application thereof” (SHANGHAI INSTITUTE OF MATERIA MEDICA, CHINESE ACADEMY OF …, priority 2019, dated 2026).
In brackets after ≈: the same amount, converted by molar mass. Read-outs that look alike come from different tables or passages of the source.

Tests used:
Assay type in all cases: physicochemical
[1] = Solubility experiment of each crystalline form in water
[2] = Dynamic Vapor Sorption (DVS) / hygroscopicity test; settings: for Humidity change (DVS): within the conventional storage humidity range
Procedure: Dynamic Vapor Sorption (DVS) test/Hygroscopicity test is a rapid measurement of the increase and loss of sample moisture caused by a flowing carrier gas with a set relative humidity (RH). The hygroscopicity of the sample is then determined by measuring the increase/decrease in the mass of the material to detect the adsorption/desorption of water vapor on a high-sensitivity, high-stability digital microbalance in a self-suspended state.
In the present invention, the test parameters of DVS are as follows: instrument model: SMS DVS Intrinsic; measurement temperature 25° C., 0-95% RH.

[3] = Crystal transformation experiment (suspension stirring, XRPD)
Procedure: Form A and Form B were mixed in equal amounts, and mixed in EA/Hep(1:1) to give a suspension, and XRPD test is performed after stirring at normal temperature (25° C.) for three days.

For `COc1cc2c(cc1OC)C(=O)C(CC1(F)CCN(Cc3ccccc3F)CC1)C2` (single isomer, unassigned) [Form A], the Solubility ([1]; Pure water) was 140 µg/mL (≈ 0.337 mM), the Solubility ([1]; water, pH 2.01, aqueous buffer, thermodynamic from solid, pH 2.01, read-out: Solubility) was 12400 µg/mL (≈ 29.7 mM) and the Solubility ([1]; water, pH 4.59, aqueous buffer, thermodynamic from solid, pH 4.59, read-out: Solubility) was 1860 µg/mL (≈ 4.48 mM). The Solubility ([1]; water, pH 6.74, aqueous buffer, thermodynamic from solid, pH 6.74, read-out: Solubility) was 140 µg/mL (≈ 0.337 mM), the “Change in hygroscopicity (weight change, DVS)” value ([2]; 0-95% relative humidity, 25° C.) was “about 0.6%” and the “Stability order of the three crystalline forms” value (from here on “Stability order”) [3] was “Form A>Form B>Form C”.
With `COc1cc2c(cc1OC)C(=O)C(CC1(F)CCN(Cc3ccccc3F)CC1)C2` (single isomer, unassigned) [Form B] the Solubility ([1]; Pure water) was 8.9 µg/mL (≈ 0.0214 mM), the Solubility ([1]; pH 2.01) was 20500 µg/mL (≈ 49.3 mM) and the Solubility ([1]; pH 4.59) was 2790 µg/mL (≈ 6.72 mM). For the same compound, the Solubility ([1]; pH 6.74) was 180 µg/mL (≈ 0.433 mM), the “Humidity change (DVS)” value [2] was 1% and the “Stability order” value [3] was “Form A>Form B>Form C”.
In the case of `COc1cc2c(cc1OC)C(=O)C(CC1(F)CCN(Cc3ccccc3F)CC1)C2` (single isomer, unassigned) [Form C], the “Solubility compared with other form” value ([1]; in water, Form C becomes Form B after being transformed) is reported as “the same as Form B”, the “Humidity change (DVS)” value [2] is reported as 1.2% and the “Stability order” value [3] is reported as “Form A>Form B>Form C”. For the same compound, the Crystal form transformation ([3]; metastable crystalline) was “transfers to Form B”.
